Data reported in publication PMC12435690, “KYLO-0603, a novel liver-targeting, thyroid hormone receptor-β agonist for the inhibition of MASH progression” (PLOS One, 2025).

What was measured:
[1] = Metabolic stability in plasma (SD rats); details: SD rat plasma
Protocol: (§1) We evaluated the metabolic stability of Kylo-0603 in the plasma of CD-1 mice, Sprague–Dawley (SD) rats, beagle dogs, cynomolgus monkeys, and humans. The plasma from the five species was mixed with Kylo-0603 (2 μM) and incubated at 37°C in a thermostatic water tank. The plasma concentrations of Kylo-0603 were monitored via LC-MS/MS at 0, 10, 30, 60, and 120 min.

[2] = system: MASH mouse model (F2 ~ 3); assay: MASH mouse model (F2~3) induced with HFD and CCl4; assay type: in vivo, C57BL/6J mice; set-up: Steatosis score / Lobular inflammation score / Ballooning score / NAFLD activity score / Fibrosis Score: scale not given here
Protocol: A total of 80 5-week-old C57BL/6J male mice were randomly assigned to two groups based on their body weight: a control group (n = 10) and a high-fat diet group (HFD, D12492, n = 70). During the eight-week feeding period, the mice in the two groups were provided with the corresponding diets, including shavings bedding, and their weights were recorded once a week. The change of the weight of each group of mice at a given time were recorded. […] The control diet group was provided with a control diet supplemented with the solvent vehicle, while the HFD control group was given a high-fat diet with the same supplement. The remaining […] groups were provided a high-fat diet containing the solvent and administered a range of doses of Kylo-0603, namely, 0.1 mg/kg, 0.3 mg/kg, 1 mg/kg, 3 mg/kg, and 10 mg/kg. The HFD control group was administered intraperitoneal injections of 0.2 ml/kg CCl4 twice a week for 8 weeks, during which time the mice were fed the same diets as before. The mice were weighed weekly, and the dosage for each week was determined based on their body weight at the commencement of that week. After a period of fasting of between 5 and 6 hours on the day following the final administration of the drug, the mice in each group were euthanized, whole blood was collected from either the orbits or the heart, and the serum was separated and stored at −80°C. The heart and liver tissues of the mice in each group were weighed and photographed. The heart tissues were then quickly frozen in liquid nitrogen and stored in a refrigerator at −80°C, and the middle lobe of the liver was divided into four parts. Two of these samples were quickly frozen in liquid nitrogen and stored at −80°C (for RNA sequencing). The remaining two portions were fixed in a 4% Paraformaldehyde solution and subsequently dehydrated for paraffin embedding and OCT embedding. […] For the quantification of hepatic lipid content, liver tissues were meticulously homogenized in isopropanol (1:9 tissue to isopropanol by mass/volume) on ice. The homogenate was then incubated overnight at 4°C and subsequently centrifuged to […]. The resulting solution was analyzed for TG and Chol using a Hitachi 7020 automated hematochemistry system.
The samples were then washed with pure water.

[3] = system: liver of the MASH mouse models (F2 ~ 3); assay: Gene expression analysis (transcriptome sequencing) in liver of MASH mouse models; assay type: in vivo, C57BL/6J mice
Protocol: Transcriptome sequencing was performed on the Illumina sequencing platform, and the library sequencing and biotechnological analysis were performed by Beijing Novozymes Technology Co.
To explore the mechanism by which Kylo-0603 promotes lipid metabolism, we used Illumina’s NEBNext® UtraTM RNA Library Prep Kit to examine the expression of relevant genes in the livers of the MASH mouse models (F2 ~ 3) after Kylo-0603 administration (Fig 8). We first examined the expression of THR-regulated genes, including iodothyronine deiodinase 1 (Dio1), malic enzyme 1 (Me1), and thyroid hormone responsive (Thrsp). Me1 encodes an enzyme that catalyzes the conversion of malate to pyruvate while concomitantly generating NADPH from NADP, and its upregulation promotes energy metabolism. Thrsp is mainly a nuclear protein induced by thyroid hormones, carbohydrate intake, adipose tissue differentiation and lactation and plays an important role in the regulation of lipid metabolism. […] LDL-R (low-density lipoprotein receptor) promotes the cellular uptake of LDL and facilitates cholesterol degradation. […] This finding was consistent with a dose-dependent reduction in the serum LDL-C level (Fig 9A). […] This therapeutic effect was validated by assessing liver histopathology in animal models. Kylo-0603 inhibited the genes encoding the inflammatory factors Tnfrsf1a, IL6, IL17rb, and IL17ra (Fig 9B).
Fig 9 Effects of Kylo-0603 on the expression of related genes of the MASH mouse models. Total RNA was extracted from the frozen liver tissue of the MASH mouse models (F2 ~ 3), and the mice were injected daily with saline or Kylo-0603 at a dosage of 0.1–3 mg/kg/day. Transcriptome sequencing is based on the Illumina sequencing platform. The relative expression of a gene was calculated by normalizing the true expression level of the target gene to the expression level of that gene in the control group.

[4] = 182-day long-term dosing toxicity study in Sprague-Dawley rats; assay type: in vivo
Protocol: To evaluate the preclinical safety profile of Kylo-0603, a novel liver-targeted thyroid hormone receptor β (TRβ) agonist with therapeutic potential, systematic toxicological assessments were conducted in both non-human primates (cynomolgus monkeys) and rodents (Sprague-Dawley rats). […] The no-observed-adverse-effect level (NOAEL) was determined to be 1.5 mg/kg/day. Collectively, these independent toxicological investigations substantiate Kylo-0603’s favorable safety, providing rigorous preclinical support for clinical advancement.

in vitro = details: human, plasma
Protocol: as §1

[5] = 3 mg/kg, 8 weeks, vs HFD + CCl4 + Vehicle
[6] = 10 mg/kg, 8 weeks, vs HFD + CCl4 + Vehicle
[7] = abstract: MASH mouse model, maximum effect

CC(=O)N[C@H]1[C@H](OCCCCCCNC(=O)CCOCC(COCCC(=O)NCCCCCCO[C@@H]2O[C@H](CO)[C@H](O)[C@H](O)[C@H]2NC(C)=O)(COCCC(=O)NCCCCCCO[C@@H]2O[C@H](CO)[C@H](O)[C@H](O)[C@H]2NC(C)=O)NC(=O)CCCCCNC(=O)COc2cc(C)c(Cc3ccc(O)c(C(C)C)c3)c(C)c2)O[C@H](CO)[C@H](O)[C@@H]1O [Kylo-0603]
plasma stability [1]: stable
decrease of fibrosis score ([2]; 3 mg/kg and 10 mg/kg, 8 weeks, vs HFD + CCl4 + Vehicle): 0.6 points
ALT decrease ([2]; 3 mg/kg, 8 weeks, serum): 73.8%
AST decrease ([2]; 3 mg/kg, 8 weeks, serum): 76.3%
decrease in ballooning degeneration score [2, 5]: 0.7 points
reduction in hepatic steatosis score [2, 5]: exceeding 1.0 points
reduction in inflammation score [2, 5]: exceeding 1.0 points
reduction of NAS (NAFLD Activity Score) [2, 5]: 3.5 points
decrease in ballooning degeneration score [2, 6]: 0.8 points
reduction in hepatic steatosis score [2, 6]: exceeding 1.0 points
reduction in inflammation score [2, 6]: exceeding 1.0 points
reduction of NAS (NAFLD Activity Score) [2, 6]: 3.7 points
TSH levels ([2]; 8 weeks, blood): decreasing trends
levels of thyroid hormones T3, fT3, T4 and fT4 ([2]; 8 weeks, blood): increasing trends
Ballooning score ([2]; HFD + CCl4, 0.1 mg/kg, 8 weeks): 1.4 ± 0.5
Fibrosis Score ([2]; HFD + CCl4, 0.1 mg/kg, 8 weeks): 2.8 ± 0.4
Lobular inflammation score ([2]; HFD + CCl4, 0.1 mg/kg, 8 weeks): 2.4 ± 0.5
NAFLD activity score ([2]; HFD + CCl4, 0.1 mg/kg, 8 weeks): 4.7 ± 0.9
Steatosis score ([2]; HFD + CCl4, 0.1 mg/kg, 8 weeks): 0.8 ± 1.0
Ballooning score ([2]; HFD + CCl4, 0.3 mg/kg, 8 weeks): 1.4 ± 0.5
Fibrosis Score ([2]; HFD + CCl4, 0.3 mg/kg, 8 weeks): 2.3 ± 0.5
Lobular inflammation score ([2]; HFD + CCl4, 0.3 mg/kg, 8 weeks): 2.2 ± 0.4
NAFLD activity score ([2]; HFD + CCl4, 0.3 mg/kg, 8 weeks): 4.0 ± 0.9
Steatosis score ([2]; HFD + CCl4, 0.3 mg/kg, 8 weeks): 0.3 ± 0.5
Ballooning score ([2]; HFD + CCl4, 1 mg/kg, 8 weeks): 2.0 ± 0.0
Fibrosis Score ([2]; HFD + CCl4, 1 mg/kg, 8 weeks): 2.3 ± 0.5
Lobular inflammation score ([2]; HFD + CCl4, 1 mg/kg, 8 weeks): 2.2 ± 0.4
NAFLD activity score ([2]; HFD + CCl4, 1 mg/kg, 8 weeks): 4.3 ± 0.5
Steatosis score ([2]; HFD + CCl4, 1 mg/kg, 8 weeks): 0.1 ± 0.3
Ballooning score ([2]; HFD + CCl4, 3 mg/kg, 8 weeks): 1.1 ± 0.3
Fibrosis Score ([2]; HFD + CCl4, 3 mg/kg, 8 weeks): 2.0 ± 0.0
Lobular inflammation score ([2]; HFD + CCl4, 3 mg/kg, 8 weeks): 1.4 ± 0.5
NAFLD activity score ([2]; HFD + CCl4, 3 mg/kg, 8 weeks): 2.8 ± 1.0
Steatosis score ([2]; HFD + CCl4, 3 mg/kg, 8 weeks): 0.2 ± 0.4
Ballooning score ([2]; HFD + CCl4, 10 mg/kg, 8 weeks): 1.0 ± 0.7
Fibrosis Score ([2]; HFD + CCl4, 10 mg/kg, 8 weeks): 2.0 ± 0.0
Lobular inflammation score ([2]; HFD + CCl4, 10 mg/kg, 8 weeks): 1.1 ± 0.5
NAFLD activity score ([2]; HFD + CCl4, 10 mg/kg, 8 weeks): 2.6 ± 1.0
Steatosis score ([2]; HFD + CCl4, 10 mg/kg, 8 weeks): 0.4 ± 1.0
decrease of fibrosis score ([2]; abstract): 0.6 points
decrease of ballooning score ([2]; abstract, maximum effect): 0.8 points
decrease of inflammation score ([2]; abstract, maximum effect): 1.8 points
reduction of NAS ([2]; abstract, maximum effect): up to 3.7 points
lowering of LDL-C levels [2, 7]: up to 88.2%
lowering of serum cholesterol levels [2, 7]: ≤ 69.2%
Atgl expression [3]: dose-responsive elevation
Cpt1a expression [3]: dose-dependent upregulation
Pdk4 expression [3]: significant increases
Srebf1 and Scd1 expression [3]: coordinated downregulation
genes encoding the inflammatory factors Tnfrsf1a, IL6, IL17rb, IL17ra [3]: inhibited
LDL-R gene expression ([3]; dose-dependent): upregulated
expression of Dio1, Thrsp and Me1 ([3]; dose-dependent): significantly upregulated
peroxisome-related genes ([3]; dose-dependent): upregulation
expression of collagen synthesis genes ([3]; with increasing doses): significantly suppressed
pathological changes ([4]; 182 days, maximum dose 1.5 mg/kg/day, 8-week recovery): only mild Kylo-0603-related pathological changes
perturbations of the hypothalamic-pituitary-thyroid (HPT) axis ([4]; Sprague-Dawley rats): no perturbations
NOAEL at 182 day ([4]; Sprague-Dawley, rat, in vivo, 1.5 mg/kg/day, 182-day study, SD rats, read-out: no-observed-adverse-effect level (NOAEL)): 1.5 mg/kg/day
half-life at 2 μM (in vitro): > 6.21 h
